The record followed here is PMC4167909 (Analytical biochemistry, 2014).

The target of assay [1] is T1, OXA-24/40 (Acinetobacter baumannii, UniProt Q8RLA6). The experiment in a line: competitive inhibition of ampicillin hydrolysis. The class given is biochemical.
Assay [2] deals with OXA-24/40 (Acinetobacter baumannii, UniProt Q8RLA6, V130D). Put plainly: SDS-PAGE fluorescent acyl-enzyme detection, single-turnover conditions. The class given is binding.
In assay [3] the target is T1, OXA-24/40. The experiment in a line: kinetic competition with ampicillin as reporter substrate. The class given is biochemical.

As usually defined, the Ki is the dissociation constant of the complex between target and ligand, obtained from inhibition or displacement. Lower therefore signals tighter binding.

On OXA-24/40 [1], `C[C@@H](O)[C@H]1C(=O)N2C(C(=O)O)=C(S[C@H]3C[C@@H](C(=O)N(C)C)N(C(=S)Nc4ccc5c(c4)C(=O)OC54c5ccc(O)cc5Oc5cc(O)ccc54)C3)[C@H](C)[C@H]12` [FM, fluorescein-meropenem] displayed an inhibition constant Ki of 43 nM. The “SDS-PAGE fluorescent acyl-enzyme detection, single-turnover conditions” value at OXA-24/40 [2] was “All Val130 substitutions showed some degree of fluorescence labeling, but the Val130Asp, Val130Thr and Val130Asn substitutions most severely reduced deacylation”.
Consider `C[C@@H](O)[C@H]1C(=O)N2C(C(=O)O)=C(S[C@@H]3CN[C@H](C(=O)N(C)C)C3)[C@H](C)[C@H]12` [meropenem], for which, on OXA-24/40 [3], the Ki turned out to be 18 nM.
